Test results from patent US3954793A, “1-(2-Propynyl)-1 H-indazole compounds” (priority 1973, dated 1976).

Assays:
[1] = tested on: IN/WHO strain house flies; test: topical application, percent kill after 24 hours, susceptible IN/WHO strain; assay type: in vivo, female); settings: for percent kill after 24 hours, synergist alone (GS 13005 part of Table XXXI): GS 13005 0, synergist 1 μg/fly; for percent kill after 24 hours, with GS 13005: GS 13005 0.10 + synergist 0.50 μg/fly; for percent kill after 24 hours, with Mobam: Mobam 0.20 + synergist 1 μg/fly; for percent kill after 24 hours, synergist alone: insecticide 0, synergist 1 μg/fly
Protocol: (§1) In Table IX, and in the tables following it, the doses of topically applied insecticides and of synergists unless otherwise noted are expressed as micrograms per fly (μg/fly).
(§2) The synergistic effect of O-(2-propynyl) oximes with mobam was determined from topical application tests on susceptible, female, IN/WHO strain house flies and from tests on resistant, female, Rutgers A strain house flies. The synergist and insecticide were dissolved in ACS Grade acetone in such quantities that a 1.0 μ liter volume applied to the thorax of 3-to-5 day old CO2 -anesthetized female adult house flies contained the desired dosage. After being treated, the flies were confined, 10 to a plaster petri dish, with 3-5 dishes/treament, and held for 24-hr. observation of mortality. Reconstituted skim milk on cotton dental wicks was provided during the holding period. The percent kills after 24 hours are shown in Table X for the IN/WHO strain and Table XI for the Rutgers A strain.
(§3) The synergistic effect of benzyl 2-propynyl ethers with mobam was determined from topical application tests on IN/WHO and Rutgers A strain houseflies, following the procedure of Example 5. The percent kills after 24 hours are shown in Table XIV for the IN/WHO strain and in Table XV for the Rutgers A strain.
The effects of varying the insecticide dose and the synergist-insecticide ratio are further illustrated, with synergist compounds II-D, II-E, II-F and Mobam insecticide, in Tables XVI, XVII and XVIII. […]
The effect on IN/WHO flies of synergist compound IV-C, identified in Table IV, with mobam was determined by the topical application procedure of Example 5. […]
(§4) The synergistic effect with GS 13005 of compounds I-A, I-B, I-D, I-E, I-F, I-G and I-I was determined from topical application tests to IN/WHO strain, Rutgers A strain and polyvalent CH strain houseflies using the procedures of Example 5. The percent kills of the IN/WHO strain flies after 24 hours are shown in Table XXVIII; of the Rutgers A strain, in Table XXIX; and of the polyvalent CH strain, in Table XXX. The doses of insecticide alone to the CH strain files caused 10-40% mortality.
The synergistic effect with Diazinon and GS 13005 of various of the benzyl 2-propynyl ethers identified in Tables II and IIa was determined by topical application tests on IN/WHO strain, and Rutgers A strain and polyvalent, resistant, CH strain houseflies using the procedures of Example 5. The percent kills after 24 hours of IN/WHO strain flies are shown in Table XXXI; of Rutgers A strain flies, in Table XXXII; and of CH strain flies, in Table XXXIII. The doses of insecticide alone to the CH strain flies caused 10-40% mortality. […]
(§5) The synergistic effect on IN/WHO strain flies and Rutgers A strain flies of compound IV-C with GS 13005 and with Diazinon was determined by the topical application procedure of Example 5. The percent kills of IN/WHO strain flies after 24 hours are shown in Tables XXXVI and XXXVII; the percent kills of Rutgers A strain flies are shown in Tables XXXVIII and XXXIX.

[2] = tested on: Rutgers A strain house flies; test: topical application, percent kill after 24 hours, resistant Rutgers A strain; assay type: in vivo, female); settings: for percent kill after 24 hours, with GS 13005: GS 13005 1.0 + synergist 5.0 μg/fly; for percent kill after 24 hours, with Mobam: Mobam 0.40 + synergist 2.0 μg/fly
Protocol: as §1, §2, §3
The synergistic effect with Diazinon of compounds I-B, I-D, I-F, I-G, I-H and I-I, identified in Tables I and Ia, was determined from topical application tests on IN/WHO strain houseflies and on Rutgers A strain houseflies by the procedure of Example 5. The percent kills after 24 hours are shown in Table XXV for the IN/WHO strain and Table XXVI for the Rutgers A strain.
as §4
The synergistic effect with Diazinon and GS 13005 of various of the benzyl 2-propynyl ethers identified in Tables II and IIa was determined by topical application tests on IN/WHO strain, and Rutgers A strain and polyvalent, resistant, CH strain houseflies using the procedures of Example 5. The percent kills after 24 hours of IN/WHO strain flies are shown in Table XXXI; of Rutgers A strain flies, in Table XXXII; and of CH strain flies, in Table XXXIII. The doses of insecticide alone to the CH strain flies caused 10-40% mortality.
as §5

male mice = test: extension of sleeping time of depressant drugs by synergists; assay type: in vivo, male mice (Swiss albino white); settings: for Mean Sleeping Time, Noludar / Relative Sleeping Time, Noludar: Noludar 110 mg/kg; for Relative Sleeping Time, Noludar / Relative Sleeping Time, Secobarbital: treated/control; for Mean Sleeping Time, Secobarbital / Relative Sleeping Time, Secobarbital: Secobarbital 37 mg/kg
Protocol: The selectivity of the synergist compounds of this invention is illustrated by the results of sleeping-time extension tests and of acute toxicity tests on Swiss albino white male mice.
The effect of various synergist compounds on sleeping time of sodium secobarbital [Secobarbital] and of 3,3-diethyl-5-methyl-2,4-dioxypiperidine [Noludar] was determined by administering the drug, with and without synergist, to approximately 38-day old male mice weighing from 25 to 30 grams. Synergists were administered in each of two doses, 74.0 mg/kg (dilution being 2.0 mg/0.1 ml corn oil), and 110.0 mg/kg (dilution 3.0 mg/0.1 ml oil). Secobarbital was administered at a dose of 37.0 mg/kg (dilution 1.0 mg/0.1 ml water). Noludar was administered at a dose of 110.0 mg/kg (dilution 3.0 mg/0.1 ml water). The synergist was administered one hour prior to administration of the Secobarbital or Noludar. Secobarbital and Noludar sleeping times were obtained for both the control (drug only) and the treated (synergist plus drug) mice by noting the time lapse between the administration of the drug and the recovery of the righting reflex, i.e. when the animal regains conciousness and can walk up an inclined wooden tray with coordination. The relative sleeping time (R.S.) was noted. The R.S. is the extended sleeping time in the treated mice (synergist plus drug) divided by the sleeping time in the control mice (drug only). The mean sleeping time for the treated mice and the R.S. are shown on Table XXXXIV for various synergist compounds.

[3] = tested on: Swiss albino, white male mice; test: acute toxicity and synergism of acute toxicity in mice; assay type: in vivo; settings: for number of mice dead, with Dimetilan: 48 hours; for number of mice dead, with GS 13005: GS 13005 71 + synergist 213 mg/kg; for number of mice dead, with Methadone: Methadone 32 + synergist 215 mg/kg; for number of mice dead, with Secobarbital: Secobarbital 90 + synergist 215 mg/kg
Protocol: To determine the acute toxicity of dimetilan alone, eight dosage levels of Dimetilan, ranging from 4 to 32 mg per kg were applied to eight, Swiss, albino, white, male mice per dosage level. The mice weighed approximately 23 to 27 grams and were five to six weeks old. The Dimetilan was administered intraperitoneally in 0.1 ml of corn oil one hour after the administration of the same dose of corn oil alone.
To determine the acute toxicity of the synergist alone, various synergists were administered intraperitoneally at a dose of 1000 mg/kg to each of a group of eight mice. The number of animals dead at the end of 72 hours is reported in the left hand column of Table XXXXVI.
The synergism of the acute toxicity of Dimetilan by various synergists was determined by tests on Swiss albino, white male mice aged five to six weeks and weighing 23 to 27 grams. The synergists and insecticides were dissolved in corn oil and the drugs were dissolved in distilled water. All compounds were administered intraperitoneally by injection in the lower quadrent of the abdomen. The synergist was administered in 0.1 ml of corn oil one hour prior to administration of the insecticide. Eight mice were treated, per dosage, with each synergist. The mice were watched for a minimum of 6 hours while held in a glass jar with bedding individually after intraperitoneal injection of the test solutions. Lethality was noted, the animals were weighed and transferred in cages, and food and water were supplied. Control mice were given 0.1 ml of corn oil at the time of administration of the synergist to the test mice and 0.1 ml corn oil plus Dimetilan at the time of administration of the insecticide to the test mice.
By the same procedure, the synergism of acute toxicity of GS 13005, Secobarbital and 6-dimethylamino-4,4-diphenyl-3-heptanone [Methadone] was determined.

[4] = insecticide 0, synergist 5.0 μg/fly
[5] = synergist 110 mg/kg one hour prior
[6] = synergist 74 mg/kg one hour prior
[7] = Dimetilan 8 + synergist 80 mg/kg i.p., eight mice
[8] = Dimetilan 8 + synergist 240 mg/kg i.p., eight mice

Compound | percent kill after 24 hours, synergist alone (GS 13005 part of Table XXXI) [1] [%] | percent kill after 24 hours, with GS 13005 [1] [%] | percent kill after 24 hours, with Mobam [1] [%] | percent kill after 24 hours, synergist alone [1] [%] | percent kill after 24 hours, with GS 13005 [2] [%] | percent kill after 24 hours, synergist alone [2, 4] [%] | Mean Sleeping Time, Noludar (male mice; [5]) [min] | Relative Sleeping Time, Noludar (male mice; synergist 110 mg/kg) | Mean Sleeping Time, Secobarbital (male mice; [6]) [min] | Relative Sleeping Time, Secobarbital (male mice; synergist 74 mg/kg) | Mean Sleeping Time, Secobarbital (male mice; [5]) [min] | Relative Sleeping Time, Secobarbital (male mice; synergist 110 mg/kg) | number of mice dead, with Dimetilan [3, 7] | number of mice dead, with Dimetilan [3, 8] | further results
C#CCOCc1ccc(Cl)cc1[N+](=O)[O-] [II-J] | 13 | 99 | 100 | 13 | 100 | 0 | 70 | 2.2 | 27 | 1.0 | 30 | 1.4 | 0 | 4 | percent kill after 24 hours, with Mobam [2]: 70%; number of mice dead, with GS 13005 [3]: 6; number of mice dead, with Methadone [3]: 3; number of mice dead, with Secobarbital [3]: 0
C#CCOCc1cccc(Cl)c1[N+](=O)[O-] [II-I] | 7 | 99 | 97 | 7 | 83 | 3 | 56 | 1.8 | 31 | 1.2 | 32 | 1.3 | 0 | 3 | percent kill after 24 hours, with Mobam [2]: 37%
C#CCOCc1ccc(Cl)c([N+](=O)[O-])c1 [II-M] | 10 | 79 | 90 | 10 | 63 | 0 | 47 | 2.1 | 29 | 1.0 | 47 | 2 | 0 | 3 | –
C=CCC1(C(C)CCC)C(=O)NC(=O)NC1=O (stereo not shown) [Secobarbital, sodium secobarbital, reference compound] | – | – | – | – | – | – | – | – | – | – | – | – | – | – | number of mice dead, control (Secobarbital alone) ([3]; Secobarbital (90 mg/kg) in 0.1 ml corn oil): 0
C#CCON=Cc1ccc(Cl)cc1 [I-H] | – | – | – | 0 | – | – | – | – | – | – | – | – | – | – | percent kill after 24 hours, with Diazinon ([1]; Diazinon 0.02 + synergist 0.10 μg/fly): 47%; percent kill after 24 hours, with Diazinon ([2]; Diazinon 1.5 + synergist 7.5 μg/fly): 80%; percent kill after 24 hours, with Diazinon ([2]; Diazinon 3.0 + synergist 15 μg/fly): 100%; percent kill after 24 hours, synergist alone ([2]; insecticide 0, synergist 7.5 μg/fly): 0%; percent kill after 24 hours, synergist alone ([2]; insecticide 0, synergist 15 μg/fly): 0%
CNC(=O)Oc1ccccc1OC(C)C [Baygon, o-isopropoxyphenyl methylcarbamate, reference compound] | – | – | – | – | – | – | – | – | – | – | – | – | – | – | 24 hour percent mortality, insecticide alone ([1]; insecticide 0.125 μg/fly (Table XXI)): 0%
CCC(=O)C(CC(C)N(C)C)(c1ccccc1)c1ccccc1 (stereo not shown) [Methadone, 6-dimethylamino-4,4-diphenyl-3-heptanone, reference compound] | – | – | – | – | – | – | – | – | – | – | – | – | – | – | number of mice dead, control (Methadone alone) ([3]; Methadone (32 mg/kg) in 0.1 ml corn oil): 2
COP(=O)(OC)OC(=CCl)c1cc(Cl)c(Cl)cc1Cl [Gardona, 2-chloro-1-(2,4,5-trichlorophenyl) vinyl dimethyl phosphate, reference compound] | – | – | – | – | – | – | – | – | – | – | – | – | – | – | 24 hour percent mortality, Gardona alone ([1]; Gardona 0.031 μg/fly): 13%; 24 hour percent mortality, Gardona alone ([1]; Gardona 0.063 μg/fly): 73%; 24 hour percent mortality, Gardona alone ([1]; Gardona 0.125 μg/fly): 100%
COP(=O)(OC)O/C(C)=C/C(=O)N(C)C [Bidrin, 3-hydroxy-N,N-dimethyl-cis-crotonamide, dimethyl phosphate, reference compound] | – | – | – | – | – | – | – | – | – | – | – | – | – | – | 24 hour percent mortality, Bidrin alone ([1]; Bidrin 0.063 μg/fly): 0%; 24 hour percent mortality, Bidrin alone ([1]; Bidrin 0.13 μg/fly): 0%
CCOCCOCCOC(C)Oc1ccc2c(c1)OCO2 (stereo not shown) [Sesoxane, reference compound] | – | – | – | – | – | – | – | 3.1 | – | 6.1 | – | 8.3 | 8 | 8 | number of mice dead, with GS 13005 [3]: 0; number of mice dead, with Methadone [3]: 5; number of mice dead, with Secobarbital [3]: 6; number of mice dead, synergist alone ([3]; synergist 1000 mg/kg i.p., Dimetilan 0, 72 hours, eight mice): 1
